Experimental data published in PMC3813140, “Lipophilicity Examination of Some ACE inhibitors andHydrochlorothiazide on Cellulose in RP Thin-Layer Chromatography” (Iranian Journal of Pharmaceutical Research : IJPR, 2012).

Assay: RP-TLC on cellulose layers, lipophilicity evaluation with water-organic modifier binary solvent systems
Assay type: physicochemical
Settings: for relative lipophilicity among the investigated substances: RP-TLC on cellulose, all mobile phases; for hRF / - m (slope, specific hydrophobic surface area) / C0 (hydrophobicity parameter, C0 = - RM0/m) / RM0 (intercept, hydrophobicity parameter): cellulose; for - m (slope, specific hydrophobic surface area) / C0 (hydrophobicity parameter, C0 = - RM0/m) / RM0 (intercept, hydrophobicity parameter): organic modifier 10-30%
Experimental: The three, water-organic modifier, binary solvent systems were used with different volume fractions. All components of mobile phases were of analytical grade of purity.
The TLC experiments were performed on 10 cm × 10 cm cellulose (Art. 105552, Merck, Germany) layers.
After the development, the detection was performed by exposing the plates to iodine vapour. All investigations were performed at room temperature (22 ± 2 °C).
The RF -values were calculated according to the relationship:
RF = Distance of spot from origin / Distance of mobile phase front from origin
Here, RM-values were calculated for each solute in each mobile phase according to the Bate-Smith and Westall equation ([29]):
RM=log (1/RF-1) (Equation 1)
In an aim to establish the reversed-phase TLC on cellulose, the mobile phase had to be more polar than the cellulose.
The retention behavior of biological active substances investigated in RP-TLC can be presented as the relationship between the RM-values and the content of organic modifier in mobile phase through the linear Equation ([16]):
RM = R^0M + mC (Equation 2)
The value of the intercept, R^0M, represents the lipophilicity of the examined substance and the value of the slope, m, corresponds to the specific hydrophobic surface area of this substance, while C represents the volume fraction of the organic modifier in mobile phase.
By the analogy through the hydrophobicity parameter of φ0 ([6], [7]), previously defined for the HPLC method as the concentration of the organic modifier in the mobile phase for which the distribution of the analyzed substance between the mobile and stationary phase was equal (1:1) another hydrophobicity parameter, C0, can be calculated. The hydrophobicity parameter, C0, represents the volume fraction of the organic modifier in mobile phase where RM = 0 ([11]-[12]) and it can be calculated as C0 = - R^0M / m.

[1] = water-acetone, 10 vol% organic modifier
[2] = water-acetone, 15 vol% organic modifier
[3] = water-acetone, 20 vol% organic modifier
[4] = water-acetone, 25 vol% organic modifier
[5] = water-acetone, 30 vol% organic modifier
[6] = water-ethanol, 10 vol% organic modifier
[7] = water-ethanol, 15 vol% organic modifier
[8] = water-ethanol, 20 vol% organic modifier
[9] = water-ethanol, 25 vol% organic modifier
[10] = water-ethanol, 30 vol% organic modifier
[11] = water-methanol, 10 vol% organic modifier
[12] = water-methanol, 15 vol% organic modifier
[13] = water-methanol, 20 vol% organic modifier
[14] = water-methanol, 25 vol% organic modifier
[15] = water-methanol, 30 vol% organic modifier

| hRF [1] | hRF [2] | hRF [3] | hRF [4] | hRF [5] | - m (slope, specific hydrophobic surface area) (water-acetone) | hRF [6] | hRF [7] | hRF [8] | hRF [9] | hRF [10] | - m (slope, specific hydrophobic surface area) (water-ethanol) | hRF [11] | hRF [12] | hRF [13] | hRF [14] | hRF [15] | - m (slope, specific hydrophobic surface area) (water-methanol) | C0 (hydrophobicity parameter, C0 = - RM0/m) (water-methanol) | SMILES | relative lipophilicity among the investigated substances | further results |
| --- | --- | --- | --- | --- | --- | --- | --- | --- | --- | --- | --- | --- | --- | --- | --- | --- | --- | --- | --- | --- | --- |
| 55 | 60 | 66 | 70 | 73 | 1.763 ± 0.001 | 65 | 70 | 74 | 79 | 82 | 1.974 ± 0.001 | 53 | 58 | 65 | 68 | 71 | 1.721 ± 0.001 | 0.063 | CCOC(=O)[C@H](CCc1ccccc1)N[C@@H](C)C(=O)N1Cc2ccccc2C[C@H]1C(=O)O [Substance 2, [3S-[2[R* (R*)],3R*]]-2-[2-[[1-(ethoxycarbonyl)-3-phenylpropyl]amino]-1-oxopropyl]-1,2,3,4-tetrahydro-3-isoquinolinecarboxylic acid] | most lipophilic | C0 (hydrophobicity parameter, C0 = - RM0/m) (water-acetone): 0.047; RM0 (intercept, hydrophobicity parameter) (water-acetone): 0.082 ± 0.020; RM0 (intercept, hydrophobicity parameter) (water-methanol): 0.109 ± 0.032 |
| 78 | 84 | 86 | 89 | 93 | 2.671 ± 0.002 | 81 | 85 | 90 | 92 | 93 | 2.589 ± 0.002 | 78 | 80 | 83 | 86 | 88 | 1.635 ± 0.001 |  | CCOC(=O)C(CCc1ccccc1)N[C@@H](C)C(=O)N1CCC[C@H]1C(=O)O (stereo partly drawn) [Substance 1, (S)-1-[N-[1-(ethoxycarbonyl)-3-phenylpropyl]-L-alanyl]-L-proline] |  |  |
| 66 | 70 | 73 | 77 | 80 | 1.569 ± 0.001 | 73 | 76 | 79 | 83 | 88 | 2.109 ± 0.002 | 60 | 68 | 75 | 80 | 85 | 2.858 ± 0.001 | 0.036 | CCOC(=O)[C@H](CCc1ccccc1)N[C@H]1CCCN2CCC[C@@H](C(=O)O)N2C1=O [Substance 4, [1S-[1α,9α (R*)]]-9-[[1-(ethoxycarbonyl)-3-phenylpropyl]amino] octahydro-10-oxo-6H-pyridazino [1,2-a] [1,2] diazepine-1-carboxylic acid monohydrate] |  | RM0 (intercept, hydrophobicity parameter) (water-methanol): 0.104 ± 0.010 |

| SMILES | hRF [1] | hRF [2] | hRF [3] | hRF [4] | hRF [5] | - m (slope, specific hydrophobic surface area) (water-acetone) | hRF [6] | hRF [7] | hRF [8] | hRF [9] | hRF [10] | - m (slope, specific hydrophobic surface area) (water-ethanol) | hRF [11] | hRF [12] | hRF [13] | hRF [14] | hRF [15] | - m (slope, specific hydrophobic surface area) (water-methanol) | C0 (hydrophobicity parameter, C0 = - RM0/m) (water-methanol) | relative lipophilicity among the investigated substances | further results |
| --- | --- | --- | --- | --- | --- | --- | --- | --- | --- | --- | --- | --- | --- | --- | --- | --- | --- | --- | --- | --- | --- |
| NCCCC[C@H](NC(CCc1ccccc1)C(=O)O)C(=O)N1CCC[C@H]1C(=O)O.O.O (stereo partly drawn) [Substance 3, (S)-1-[N^2-(1-carboxy-3-phenylpropyl)-L-lysyl]-L-proline dihydrate] | 86 | 90 | 92 | 94 | 96 | 2.849 ± 0.001 | 91 | 93 | 95 | 96 | 97 | 2.533 ± 0.001 | 85 | 88 | 91 | 92 | 93 | 1.871 ± 0.002 |  | most hydrophilic |  |
| NS(=O)(=O)c1cc2c(cc1Cl)NCNS2(=O)=O [HCTZ, 6-chloro-3,4-dihydro-2H-1,2,4-benzothiadiazine-7-sulfonamide,1,1-dioxide] | 83 | 85 | 88 | 92 | 95 | 2.975 ± 0.004 | 85 | 87 | 90 | 93 | 95 | 2.697 ± 0.002 | 80 | 83 | 85 | 90 | 92 | 2.366 ± 0.023 |  |  |  |
